From ChEMBL document CHEMBL4270669 (J Med Chem, 2018)
Converted amounts (≈) assume the structure as drawn. Values belong to the compound of their own block, whether it stands above or below them. The source made the active and inactive calls. The calls are words filed in the database; no cut-off is given here.

How the values were obtained:
[1] = tested on: A2058; assay: Induction of cell cycle arrest in human A2058 cells assessed as decrease in cell levels at S phase at 5 uM after 24 hrs by Hoechst33342-staining based FACS analysis; type: functional
[2] = tested on: A2058; assay: Induction of cell cycle arrest in human A2058 cells assessed as decrease in cell levels at G2/M phase at 5 uM after 24 hrs by Hoechst33342-staining based FACS analysis; type: functional
[3] = tested on: A2058; assay: Antiproliferative activity against human A2058 cells at 10 uM after 72 hrs by ATPlite based assay; type: functional, cell-based
[4] = tested on: SK-OV-3; assay: Induction of cell cycle arrest in human SKOV3 cells assessed as decrease in cell levels at S phase at 2 uM after 24 hrs by Hoechst33342-staining based FACS analysis; type: functional
[5] = tested on: SK-OV-3; assay: Induction of cell cycle arrest in human SKOV3 cells assessed as decrease in cell levels at G2/M phase at 2 uM after 24 hrs by Hoechst33342-staining based FACS analysis; type: functional
[6] = tested on: SK-OV-3; assay: Antiproliferative activity against human SKOV3 cells at 10 uM after 72 hrs by ATPlite based assay; type: functional, cell-based
[7] = tested on: SK-OV-3; assay: Induction of cell cycle arrest in human SKOV3 cells assessed as accumulation at G1 phase at 2 uM after 24 hrs by Hoechst33342-staining based FACS analysis; type: functional
[8] = tested on: A2058; assay: Induction of cell cycle arrest in human A2058 cells assessed as accumulation at G1 phase at 5 uM after 24 hrs by Hoechst33342-staining based FACS analysis; type: functional
[9] = Lipophilicity, log D of the compound at pH 7.4; type: physicochemical; conditions: buffer
[10] = Thermodynamic solubility of the compound in FaSSIF; type: physicochemical; conditions: read-out: Therm_solubility
[11] = biological target: PDE4D2 (3',5'-cyclic-AMP phosphodiesterase 4D) (Homo sapiens, UniProt Q08499); assay: Inhibition of recombinant human PDE4D2 at 10 uM using [3H]cAMP/cAMP by scintillation counting method relative to control; conditions: recombinant human PDE4D2, probe [3H]cAMP/cAMP
PDE4D2 (3',5'-cyclic-AMP phosphodiesterase 4D), sequence (Q08499 whole entry): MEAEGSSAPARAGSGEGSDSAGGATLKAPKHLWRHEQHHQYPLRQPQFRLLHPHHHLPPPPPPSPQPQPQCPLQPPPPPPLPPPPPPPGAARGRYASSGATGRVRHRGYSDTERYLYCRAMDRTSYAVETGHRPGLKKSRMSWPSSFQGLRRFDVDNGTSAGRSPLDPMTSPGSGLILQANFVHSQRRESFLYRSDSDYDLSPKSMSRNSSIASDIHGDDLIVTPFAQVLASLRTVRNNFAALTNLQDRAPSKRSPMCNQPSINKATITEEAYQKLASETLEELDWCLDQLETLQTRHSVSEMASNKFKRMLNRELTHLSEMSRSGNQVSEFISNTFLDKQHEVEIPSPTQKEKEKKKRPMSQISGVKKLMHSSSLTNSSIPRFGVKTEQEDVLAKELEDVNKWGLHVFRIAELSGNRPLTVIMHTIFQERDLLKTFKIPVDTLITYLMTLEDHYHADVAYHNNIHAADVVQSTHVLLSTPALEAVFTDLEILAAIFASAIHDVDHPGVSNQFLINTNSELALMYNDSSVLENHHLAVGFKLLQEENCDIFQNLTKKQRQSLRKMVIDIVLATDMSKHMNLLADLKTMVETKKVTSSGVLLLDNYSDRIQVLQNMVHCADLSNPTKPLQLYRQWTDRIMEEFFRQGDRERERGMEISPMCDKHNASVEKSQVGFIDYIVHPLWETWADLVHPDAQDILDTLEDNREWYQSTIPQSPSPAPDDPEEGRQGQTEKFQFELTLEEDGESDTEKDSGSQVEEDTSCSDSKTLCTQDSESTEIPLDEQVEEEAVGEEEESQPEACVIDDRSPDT

[12] = Cmax in C57BL/6JRj mouse brain at 50 mg/kg, po administered as single dose; type: ADME, organism-based; design: dose 50 mg/kg, route oral
[13] = Metabolic stability in rat liver microsomes assessed as compound remaining after 30 mins; type: ADME, microsome; conditions: read-out: Stability
[14] = tested on: A 172; assay: Growth inhibition of human A172 cells after 72 hrs by ATPlite based assay; type: functional; conditions: A 172, 72 h, pooled result: one value given for 8 cell lines, strains, targets or settings
[15] = AUC in Sprague-Dawley rat plasma at 10 mg/kg, po administered as single dose after 8 hrs; type: ADME, organism-based; design: dose 10 mg/kg, time < 8 hr, route oral
[16] = Inhibition of TORC1 in human A2058 cells assessed as decrease in S6 phosphorylation at Ser235/236 after 1 hr by Western blot analysis; type: cell-based; conditions: A2058, 1 h
[17] = biological target: T1, Serine/threonine-protein kinase mTOR (Homo sapiens, UniProt P42345)
[18] = Thermodynamic solubility of the compound at pH 4.5; type: physicochemical; conditions: buffer, read-out: Therm_solubility
[19] = tested on: Rattus norvegicus; assay: Increase in insulin levels in Sprague-Dawley rat plasma at 10 mg/kg, po administered as single dose; type: functional, organism-based
[20] = tested on: Mus musculus; assay: Toxicity in BALB/C nude mouse xenografted with human OVCAR3 cells assessed as body weight loss at 50 mg/kg, po administered daily for 28 days relative to control; type: organism-based; conditions: in vivo, 672 h
[21] = Toxicity in mouse; type: organism-based; conditions: in vivo
[22] = biological target: Voltage-gated inwardly rectifying potassium channel KCNH2 (Homo sapiens, UniProt Q12809); assay: Binding affinity to human ERG expressed in CHO cell membranes at 10 uM by radioligand displacement assay
[23] = biological target: T2, Phosphatidylinositol 4,5-bisphosphate 3-kinase catalytic subunit alpha isoform (Homo sapiens, UniProt P42336)
T2 sequence (P42336 whole entry, the tested form may be a part, canonical isoform): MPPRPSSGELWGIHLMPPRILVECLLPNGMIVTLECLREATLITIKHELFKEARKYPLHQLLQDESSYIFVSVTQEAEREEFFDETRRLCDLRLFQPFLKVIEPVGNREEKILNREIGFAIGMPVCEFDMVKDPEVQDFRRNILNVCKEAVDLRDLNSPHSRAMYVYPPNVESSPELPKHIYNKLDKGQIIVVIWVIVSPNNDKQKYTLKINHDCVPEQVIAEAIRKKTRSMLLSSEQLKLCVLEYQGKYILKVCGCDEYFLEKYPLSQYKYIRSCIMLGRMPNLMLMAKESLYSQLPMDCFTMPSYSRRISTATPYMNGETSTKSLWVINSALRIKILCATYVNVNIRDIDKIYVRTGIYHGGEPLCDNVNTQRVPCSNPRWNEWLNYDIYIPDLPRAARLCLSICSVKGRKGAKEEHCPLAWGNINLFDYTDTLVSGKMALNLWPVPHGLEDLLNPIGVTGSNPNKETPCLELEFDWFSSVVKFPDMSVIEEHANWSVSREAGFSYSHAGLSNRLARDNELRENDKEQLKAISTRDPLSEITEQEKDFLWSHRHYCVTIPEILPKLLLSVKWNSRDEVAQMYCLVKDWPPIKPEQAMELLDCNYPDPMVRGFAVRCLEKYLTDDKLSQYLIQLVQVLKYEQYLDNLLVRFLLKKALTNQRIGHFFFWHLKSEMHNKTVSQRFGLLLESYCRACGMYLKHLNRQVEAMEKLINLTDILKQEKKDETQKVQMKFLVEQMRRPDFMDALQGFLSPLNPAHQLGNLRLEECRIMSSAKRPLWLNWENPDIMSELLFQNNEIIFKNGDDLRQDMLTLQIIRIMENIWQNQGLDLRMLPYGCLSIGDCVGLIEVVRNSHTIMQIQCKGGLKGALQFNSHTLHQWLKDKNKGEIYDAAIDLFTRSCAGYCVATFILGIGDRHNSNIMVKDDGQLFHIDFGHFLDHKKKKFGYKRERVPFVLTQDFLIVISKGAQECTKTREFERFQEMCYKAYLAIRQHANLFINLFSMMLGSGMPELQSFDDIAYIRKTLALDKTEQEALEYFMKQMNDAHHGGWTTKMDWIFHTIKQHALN

[24] = biological target: Phosphatidylinositol 3-kinase catalytic subunit type 3 (Homo sapiens, UniProt Q8NEB9); assay: Inhibition of human VPS34 (282 to 879 residues) expressed in mammalian expression system by KINOMEscan assay
[25] = AUC in Sprague-Dawley rat brain at 10 mg/kg, po administered as single dose after 8 hrs; type: ADME, organism-based; design: dose 10 mg/kg, time < 8 hr, route oral; conditions: in vivo
[26] = Half life in mouse hepatocytes; type: ADME, cell-based, Hepatocyte
[27] = tested on: Mus musculus; assay: Increase in insulin levels in C57BL/6JRj mouse plasma at 50 mg/kg, po administered as single dose; type: functional, organism-based
[28] = Ratio of drug level in C57BL/6JRj mouse brain to plasma at 50 mg/kg, po administered as single dose; type: ADME, organism-based; conditions: read-out: BPR
[29] = biological target: T3, Phosphatidylinositol 4,5-bisphosphate 3-kinase catalytic subunit delta isoform (Homo sapiens, UniProt O00329)
T3 sequence (O00329 whole entry): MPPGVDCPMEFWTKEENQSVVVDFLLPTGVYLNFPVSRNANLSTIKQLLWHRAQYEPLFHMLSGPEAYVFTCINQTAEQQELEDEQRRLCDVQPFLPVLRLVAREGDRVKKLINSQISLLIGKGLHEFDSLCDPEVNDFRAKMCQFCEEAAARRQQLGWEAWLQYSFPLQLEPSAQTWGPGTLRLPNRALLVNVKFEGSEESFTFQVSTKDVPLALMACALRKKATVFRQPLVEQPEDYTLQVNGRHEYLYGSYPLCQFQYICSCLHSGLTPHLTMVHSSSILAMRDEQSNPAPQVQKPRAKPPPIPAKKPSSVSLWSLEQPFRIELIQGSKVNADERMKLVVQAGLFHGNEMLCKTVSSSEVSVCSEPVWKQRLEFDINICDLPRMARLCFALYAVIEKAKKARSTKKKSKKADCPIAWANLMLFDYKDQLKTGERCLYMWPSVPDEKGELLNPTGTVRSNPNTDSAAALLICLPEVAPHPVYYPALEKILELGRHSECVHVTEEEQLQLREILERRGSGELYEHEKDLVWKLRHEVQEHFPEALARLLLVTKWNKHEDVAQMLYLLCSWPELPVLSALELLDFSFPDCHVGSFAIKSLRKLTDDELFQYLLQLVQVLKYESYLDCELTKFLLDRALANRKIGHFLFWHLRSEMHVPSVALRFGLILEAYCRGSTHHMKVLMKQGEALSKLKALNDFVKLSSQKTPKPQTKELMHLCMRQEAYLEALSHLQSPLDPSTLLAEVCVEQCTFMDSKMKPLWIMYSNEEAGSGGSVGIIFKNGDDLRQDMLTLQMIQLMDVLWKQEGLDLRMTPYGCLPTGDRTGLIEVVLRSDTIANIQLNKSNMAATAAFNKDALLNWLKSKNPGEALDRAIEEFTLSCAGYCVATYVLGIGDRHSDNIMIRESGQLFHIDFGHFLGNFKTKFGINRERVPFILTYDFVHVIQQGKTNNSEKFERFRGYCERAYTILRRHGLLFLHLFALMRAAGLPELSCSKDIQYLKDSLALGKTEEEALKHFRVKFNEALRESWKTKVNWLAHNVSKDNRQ
Description: Inhibition of human PI3Kdelta (108 to 1044 residues) expressed in mammalian expression system by KINOMEscan assay

[30] = tested on: Mus musculus; assay: Increase in glucose levels in C57BL/6JRj mouse plasma at 50 mg/kg, po administered as single dose; type: functional, organism-based
[31] = Clearance in mouse hepatocytes assessed per million cells; type: ADME, cell-based, Hepatocyte; conditions: read-out: CLH
[32] = tested on: OVCAR-3; assay: Antitumor activity against human OVCAR3 cells xenografted in BALB/C nude mouse assessed as tumor growth inhibition at 50 mg/kg, po administered daily for 28 days relative to control; type: functional; conditions: OVCAR-3, po, 672 h, read-out: TGI
[33] = tested on: Rattus norvegicus; assay: Increase in glucose levels in Sprague-Dawley rat plasma at 10 mg/kg, po administered as single dose; type: functional, organism-based
[34] = Cmax in Sprague-Dawley rat brain at 10 mg/kg, po administered as single dose after 30 mins; type: ADME, organism-based; design: dose 10 mg/kg, route oral
[35] = biological target: T1, Serine/threonine-protein kinase mTOR; remark: listed apart in the source
Description: Inhibition of human mTOR (1382 to 2549 residues) expressed in mammalian expression system by KINOMEscan assay

[36] = Cmax in Sprague-Dawley rat plasma at 10 mg/kg, po administered as single dose after 30 mins; type: ADME, organism-based; design: dose 10 mg/kg, route oral
[37] = Ratio of drug level in Sprague-Dawley rat brain to plasma at 10 mg/kg, po administered as single dose; type: ADME, organism-based; conditions: read-out: BPR
[38] = Drug uptake in Sprague-Dawley rat brain at 10 mg/kg, po administered as single dose measured at >8 hrs; type: ADME, organism-based; conditions: read-out: Drug uptake
[39] = biological target: Phosphatidylinositol 4,5-bisphosphate 3-kinase catalytic subunit beta isoform (Homo sapiens, UniProt P42338)
Phosphatidylinositol 4,5-bisphosphate 3-kinase catalytic subunit beta isoform, sequence (P42338 whole entry, canonical isoform): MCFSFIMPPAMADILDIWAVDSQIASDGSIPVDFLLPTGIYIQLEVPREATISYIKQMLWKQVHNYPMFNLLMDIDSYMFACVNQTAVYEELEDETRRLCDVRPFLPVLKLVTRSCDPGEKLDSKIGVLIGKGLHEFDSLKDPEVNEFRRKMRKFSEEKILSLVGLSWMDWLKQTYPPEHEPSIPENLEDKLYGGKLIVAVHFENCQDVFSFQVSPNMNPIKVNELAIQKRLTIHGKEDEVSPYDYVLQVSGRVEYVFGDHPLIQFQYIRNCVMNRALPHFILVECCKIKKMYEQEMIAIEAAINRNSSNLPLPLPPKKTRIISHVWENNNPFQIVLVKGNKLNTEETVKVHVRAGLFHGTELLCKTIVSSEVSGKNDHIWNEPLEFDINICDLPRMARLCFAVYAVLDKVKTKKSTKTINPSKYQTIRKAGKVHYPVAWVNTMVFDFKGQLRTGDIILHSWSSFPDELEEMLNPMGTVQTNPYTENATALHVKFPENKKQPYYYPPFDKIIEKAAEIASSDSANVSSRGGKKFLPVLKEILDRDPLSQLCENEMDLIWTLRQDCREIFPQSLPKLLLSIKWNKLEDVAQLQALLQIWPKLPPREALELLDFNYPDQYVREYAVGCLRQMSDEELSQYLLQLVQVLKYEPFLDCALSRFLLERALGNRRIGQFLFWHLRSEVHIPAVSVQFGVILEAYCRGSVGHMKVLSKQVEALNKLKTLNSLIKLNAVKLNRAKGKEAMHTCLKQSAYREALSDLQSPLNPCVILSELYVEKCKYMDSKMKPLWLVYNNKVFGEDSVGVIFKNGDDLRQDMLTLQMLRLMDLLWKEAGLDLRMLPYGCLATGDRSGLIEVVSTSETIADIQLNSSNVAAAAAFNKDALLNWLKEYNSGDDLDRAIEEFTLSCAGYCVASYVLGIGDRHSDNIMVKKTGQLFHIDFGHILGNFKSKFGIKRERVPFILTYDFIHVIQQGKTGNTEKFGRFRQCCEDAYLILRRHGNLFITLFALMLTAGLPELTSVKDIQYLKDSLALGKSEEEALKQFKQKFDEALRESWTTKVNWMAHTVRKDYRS
Description: Inhibition of human PI3Kbeta (118 to 1070 residues) expressed in mammalian expression system by KINOMEscan assay

[40] = biological target: Phosphatidylinositol 4,5-bisphosphate 3-kinase catalytic subunit gamma isoform (Homo sapiens, UniProt P48736)
Description: Inhibition of human PI3Kgamma (144 to 1102 residues) expressed in mammalian expression system by KINOMEscan assay

[41] = tested on: Mus musculus; assay: Antiepileptic activity in Tsc1flox/flox/GFAP-Cre conditional knocked out mouse model assessed as reduction in seizures at 100 mg/kg, po qd treated from days 21 to 53 postnatal by electroencephalography; type: functional, organism-based
[42] = biological target: COX1 (Prostaglandin G/H synthase 1) (Homo sapiens, UniProt P23219); assay: Inhibition of recombinant human COX1 at 10 uM using arachidonic acid/ADHP as substrate by fluorometric method relative to control; conditions: recombinant human COX1, probe arachidonic acid/ADHP
COX1 (Prostaglandin G/H synthase 1), sequence (P23219 whole entry): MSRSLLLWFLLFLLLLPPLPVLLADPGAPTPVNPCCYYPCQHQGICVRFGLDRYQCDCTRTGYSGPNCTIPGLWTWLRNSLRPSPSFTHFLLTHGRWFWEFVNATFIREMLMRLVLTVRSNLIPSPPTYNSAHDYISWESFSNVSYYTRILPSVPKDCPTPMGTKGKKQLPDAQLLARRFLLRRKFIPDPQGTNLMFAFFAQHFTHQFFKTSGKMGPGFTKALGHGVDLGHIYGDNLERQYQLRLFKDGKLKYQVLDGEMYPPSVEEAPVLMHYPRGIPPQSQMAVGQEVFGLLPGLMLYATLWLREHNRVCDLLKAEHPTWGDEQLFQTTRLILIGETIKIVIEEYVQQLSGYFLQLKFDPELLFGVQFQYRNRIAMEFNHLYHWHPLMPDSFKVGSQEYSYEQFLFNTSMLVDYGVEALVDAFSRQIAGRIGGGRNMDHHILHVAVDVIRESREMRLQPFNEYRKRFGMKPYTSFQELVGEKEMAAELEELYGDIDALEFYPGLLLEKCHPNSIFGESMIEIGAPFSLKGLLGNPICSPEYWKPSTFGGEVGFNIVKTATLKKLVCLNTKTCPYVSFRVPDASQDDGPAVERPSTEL

[43] = Clearance in rat hepatocytes assessed per million cells; type: ADME, cell-based, Hepatocyte; conditions: read-out: CLH
[44] = biological target: Phosphatidylinositol 4-kinase beta (Homo sapiens, UniProt Q9UBF8)
Phosphatidylinositol 4-kinase beta, sequence (Q9UBF8 whole entry): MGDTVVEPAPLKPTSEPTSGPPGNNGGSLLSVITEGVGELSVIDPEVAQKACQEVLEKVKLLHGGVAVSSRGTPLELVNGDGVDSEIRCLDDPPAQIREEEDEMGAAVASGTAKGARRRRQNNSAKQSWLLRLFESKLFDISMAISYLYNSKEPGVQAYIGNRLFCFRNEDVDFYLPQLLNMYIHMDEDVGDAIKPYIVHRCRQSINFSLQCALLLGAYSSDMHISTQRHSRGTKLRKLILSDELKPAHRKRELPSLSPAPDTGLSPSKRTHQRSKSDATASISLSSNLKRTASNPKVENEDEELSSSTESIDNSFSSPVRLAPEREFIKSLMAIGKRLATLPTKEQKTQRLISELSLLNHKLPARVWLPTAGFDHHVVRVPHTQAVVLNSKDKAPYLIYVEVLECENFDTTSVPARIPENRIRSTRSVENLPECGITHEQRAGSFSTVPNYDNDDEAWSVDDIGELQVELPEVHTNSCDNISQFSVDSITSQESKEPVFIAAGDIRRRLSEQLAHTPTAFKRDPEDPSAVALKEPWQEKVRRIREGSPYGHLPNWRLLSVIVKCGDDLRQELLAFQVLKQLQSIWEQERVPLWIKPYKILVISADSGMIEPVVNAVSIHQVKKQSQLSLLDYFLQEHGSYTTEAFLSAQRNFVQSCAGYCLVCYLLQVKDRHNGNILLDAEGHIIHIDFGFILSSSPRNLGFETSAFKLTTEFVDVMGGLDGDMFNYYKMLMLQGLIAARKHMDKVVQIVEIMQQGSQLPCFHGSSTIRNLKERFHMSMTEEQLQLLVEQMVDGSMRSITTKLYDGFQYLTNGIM
Description: Inhibition of human PI4Kbeta (1 to 828 residues) expressed in mammalian expression system by KINOMEscan assay

[45] = Inhibition of TORC2 in human A2058 cells assessed as decrease in PKB/Akt phosphorylation at Ser473 after 1 hr by Western blot analysis; type: cell-based; conditions: A2058, 1 h
[46] = biological target: T2, Phosphatidylinositol 4,5-bisphosphate 3-kinase catalytic subunit alpha isoform; remark: listed apart in the source
Description: Inhibition of human PI3Kalpha (108 to 1068 residues) expressed in mammalian expression system by KINOMEscan assay

[47] = Toxicity in rat after 14 days; type: organism-based; conditions: in vivo
[48] = Half life in rat hepatocytes; type: ADME, cell-based, Hepatocyte
[49] = Metabolic stability in mouse liver microsomes assessed as compound remaining after 30 mins; type: ADME, microsome; conditions: read-out: Stability
[50] = Apparent permeability of the compound by PAMPA; type: ADME
[51] = Thermodynamic solubility of the compound at pH 1.2; type: physicochemical; conditions: buffer, read-out: Therm_solubility
[52] = Thermodynamic solubility of the compound in FeSSIF; type: physicochemical; conditions: read-out: Therm_solubility
[53] = Unbound fraction in rat brain; type: ADME, tissue-based
[54] = Thermodynamic solubility of the compound at pH 6.8; type: physicochemical; conditions: buffer, read-out: Therm_solubility
[55] = biological target: T1, Serine/threonine-protein kinase mTOR; assay: Binding affinity to mTOR FKBP12 site (unknown origin)

SMILES: CO[C@H]1C[C@@H]2CC[C@@H](C)[C@@](O)(O2)C(=O)C(=O)N2CCCC[C@H]2C(=O)O[C@H]([C@H](C)C[C@@H]2CC[C@@H](O)[C@H](OC)C2)CC(=O)[C@H](C)/C=C(\C)[C@@H](O)[C@@H](OC)C(=O)[C@H](C)C[C@H](C)/C=C/C=C/C=C/1C
- Activity [1]: Active
- Activity [2]: Active
- Activity [3]: Active
- Activity [4]: Active
- Activity [5]: Active
- Activity [6]: inactive
- Activity [7]: Active
- Activity [8]: Active

SMILES: Nc1cc(C(F)F)c(-c2nc(N3C4CCC3COC4)nc(N3C4CCC3COC4)n2)cn1
- logD [9]: 3.47
- solubility thermodynamic [10]: 66 µM (≈ 29.4 µg/mL)
- inhibition at 10 µM [11]: < 50%
- Cmax [12]: 7710 ng/g
- remaining at 0.5 h [13]: 108%
- IC50 [14]: 920 nM
- AUC at 8 h [15]: 409 µg·h/mL
- IC50 [16]: 85.2 nM
- Ki [17]: 10.8 nM
- solubility thermodynamic [18]: 78.2 µM (≈ 34.8 µg/mL)
- Activity [19]: inactive
- Activity [20]: Non-Toxic
- MTD [21]: 150 mg/kg
- inhibition (INH) [22]: Not Active
- Ki [23]: 4.2 µM
- Kd [24]: 2750 nM
- AUC [25]: 404 µg·h/g
- half-life [26]: 324 min
- Activity [27]: inactive
- Kp [28]: 1.6
- Kd [29]: 23 µM
- Activity [30]: Active
- hepatocyte CLint [31]: 2.67 µL/min/1e6 cells
- inhibition in vivo at 50 mg/kg [32]: > 50%
- Activity [33]: inactive
- Cmax [34]: 1310 ng/g
- Kd [35]: 0.27 nM
- Cmax [36]: 1360 ng/mL
- Kp [37]: 1
- concentration at 8 h [38]: 900 ng/g
- Kd [39]: 22 µM
- Kd [40]: 18 µM
- Activity [41]: Active
- inhibition at 10 µM [42]: < 50%
- hepatocyte CLint [43]: 1.85 µL/min/1e6 cells
- Kd [44]: > 30 µM
- IC50 [45]: 190 nM
- Kd [46]: 1000 nM
- MTD at 336 h [47]: 30 mg/kg
- half-life [48]: 468 min
- remaining at 0.5 h [49]: 70.2%
- Papp [50]: 5.22 ×10⁻⁶ cm/s
- solubility thermodynamic [51]: 20 mM (≈ 8890 µg/mL)
- solubility thermodynamic [52]: 335 µM (≈ 149 µg/mL)
- fraction unbound [53]: 0.03
- solubility thermodynamic [54]: 33.7 µM (≈ 15 µg/mL)

- Kd [55]: 2 nM
SMILES: CO[C@H]1C[C@@H]2CC[C@@H](C)[C@@](O)(O2)C(=O)C(=O)N2CCCC[C@H]2C(=O)O[C@H]([C@H](C)C[C@@H]2CC[C@@H](OCCO)[C@H](OC)C2)CC(=O)[C@H](C)/C=C(\C)[C@@H](O)[C@@H](OC)C(=O)[C@H](C)C[C@H](C)/C=C/C=C/C=C/1C [EVEROLIMUS]
